Experimental data reported in ChEMBL document CHEMBL3232787, “Lipopeptides from the tropical marine cyanobacterium Symploca sp” (J Nat Prod, 2014).

How the values were obtained:
HCT-116 = assay: Cytotoxicity against human HCT116 cells after 120 hrs by hemocytometer; assay type: functional, cell-based; conditions: HCT-116, 120 h
KB = assay: Cytotoxicity against human KB cells; assay type: functional, cell-based

Structure (SMILES) | IC50 (HCT-116) [µM] | IC50 (KB) [µM]
CC[C@H](C)[C@H](NC(=O)[C@H](CCC(N)=O)N(C)C(=O)[C@H](OC(=O)[C@@H](O)C(C)C)C(C)C)C(=O)N[C@@H](C)C(=O)N[C@H](Cc1ccccc1)C(=O)N1CCC[C@H]1C(=O)OC | 25 | 
CC[C@H](C)[C@@H](NC(=O)[C@H](CCC(N)=O)N(C)C(=O)[C@H](OC(=O)[C@@H](O)C(C)C)C(C)C)C(=O)N[C@@H](C)C(=O)N(C)[C@H](Cc1ccccc1)C(=O)N1CCC[C@H]1C(=O)OC | > 25 | 
CC[C@H](C)[C@H](O)C(=O)N[C@@H](CC(C)C)C(=O)N(C)[C@@H](CCC(N)=O)C(=O)N[C@H](C(=O)NCC(=O)N(C)[C@H](Cc1ccccc1)C(=O)N1CCC[C@H]1C(=O)OC)[C@@H](C)CC [TASIAMIDE] |  | 0.48
